Several values for one entry are separate records, joined by “and”; a condition that tells them apart may be missing. Identical values can stand only once.
What follows are molecules tested against Gastrin/cholecystokinin type B receptor (Cavia porcellus) (assay: In vitro inhibition of binding of [3H]pCCK-8 against Cholecystokinin type B receptor of guinea pig cerebral cortex membranes).

| SMILES | Ki |
| --- | --- |
| O=C(Nc1ccc(Br)cc1)NC1C(=O)N(CC23C[C@H]4C[C@@H](C2)C[C@@H](C3)C4)c2ccccc2N(c2ccccc2)C1=O (stereo not given in full) | 1.4 nM |
| CC(=O)Nc1cccc(NC(=O)NC2C(=O)N(CC34C[C@H]5C[C@@H](C3)C[C@@H](C4)C5)c3ccccc3N(c3ccccc3)C2=O)c1 (stereo not given in full) | 1.3 nM |
| CC(C)(C)CCN1C(=O)C(NC(=O)Nc2cccc(C3N=NN=N3)c2)C(=O)N(c2ccccc2)c2ccccc21 (stereo not given) | 0.288 nM |
| Nc1cccc(NC(=O)NC2C(=O)N(CC34C[C@H]5C[C@@H](C3)C[C@@H](C4)C5)c3ccccc3N(c3ccccc3)C2=O)c1 (stereo not given in full) | 0.295 nM |
| O=C(Nc1cccc(C(=O)O)c1)NC1C(=O)N(CC23C[C@H]4C[C@@H](C2)C[C@@H](C3)C4)c2ccccc2N(c2ccccc2)C1=O (stereo not given in full) | 0.977 nM |
| CC(C)(C)CCN1C(=O)C(NC(=O)Nc2ccccc2)C(=O)N(c2ccccc2)c2ccccc21 (stereo not given) | 0.676 nM |
| CC(C)(C)CCN1C(=O)C(NC(=O)Nc2ccccc2)C(=O)N(c2ccccc2F)c2ccccc21 (stereo not given) | 0.955 nM |
| O=C(Nc1ccccc1)NC1C(=O)N(CCC2CCCC2)c2ccccc2N(c2ccccc2F)C1=O (stereo not given) | 0.724 nM |
| CN(C)c1cccc(NC(=O)NC2C(=O)N(CC34C[C@H]5C[C@@H](C3)C[C@@H](C4)C5)c3ccccc3N(c3ccccc3)C2=O)c1 (stereo not given in full) | 1.1 nM |
| O=C(Nc1cccc(C2N=NN=N2)c1)NC1C(=O)N(c2ccccc2)c2ccccc2N(C2[C@H]3C[C@@H]4C[C@@H](C[C@H]2C4)C3)C1=O (stereo not given in full) | 2.1 nM |
| O=C(Nc1cccc(Cl)c1)NC1C(=O)N(c2ccccc2)c2ccccc2N(C2CC3CCC2C3)C1=O (stereo not given) | 1.7 nM |
| CN(C)c1cccc(NC(=O)NC2C(=O)N(CCC(C)(C)C)c3ccccc3N(c3ccccc3F)C2=O)c1 (stereo not given) | 0.603 nM |
| CSc1cccc(NC(=O)NC2C(=O)N(CCC(C)(C)C)c3ccccc3N(c3ccccc3F)C2=O)c1 (stereo not given) | 0.724 nM |
| O=C(Nc1cccc(C(=O)OCCN2CCOCC2)c1)NC1C(=O)N(CC23C[C@H]4C[C@@H](C2)C[C@@H](C3)C4)c2ccccc2N(c2ccccc2)C1=O (stereo not given in full) | 0.562 nM |
| CC(O)C(O)Nc1cccc(NC(=O)NC2C(=O)N(CC34C[C@H]5C[C@@H](C3)C[C@@H](C4)C5)c3ccccc3N(c3ccccc3)C2=O)c1 (stereo not given in full) | 1.3 nM and 0.676 nM |
| CN(C)c1cccc(NC(=O)NC2C(=O)N(c3ccccc3)c3ccccc3N(C3[C@H]4C[C@@H]5C[C@@H](C[C@H]3C5)C4)C2=O)c1 (stereo not given in full) | 2.3 nM |
| CSc1cccc(NC(=O)NC2C(=O)N(CCC34C[C@H]5C[C@@H](C3)C[C@@H](C4)C5)c3ccccc3N(c3ccccc3)C2=O)c1 (stereo not given in full) | 60 nM |
| O=C(Nc1ccccc1)NC1C(=O)N(c2ccccc2)c2ccccc2N(C2CC3CCC2C3)C1=O (stereo not given) | 1.5 nM |
| CC(C)C(C)CN1C(=O)C(NC(=O)Nc2ccccc2)C(=O)N(c2ccccc2)c2ccccc21 (stereo not given) | 1.1 nM |
| O=C(Nc1cccc(C2N=NN=N2)c1)NC1C(=O)N(CCC2CCCC2)c2ccccc2N(c2ccccc2F)C1=O (stereo not given) | 0.224 nM |
| CC(C)CCN1C(=O)C(NC(=O)Nc2ccccc2)C(=O)N(c2ccccc2F)c2ccccc21 (stereo not given) | 7.8 nM |
| CCOC(=O)c1cccc(NC(=O)NC2C(=O)N(CC34C[C@H]5C[C@@H](C3)C[C@@H](C4)C5)c3ccccc3N(c3ccccc3)C2=O)c1 (stereo not given in full) | 3 nM |
| CC(C)(C)CCN1C(=O)C(NC(=O)Nc2cccc(OC(F)(F)F)c2)C(=O)N(c2ccccc2)c2ccccc21 (stereo not given) | 2.9 nM |

| SMILES | Ki |
| --- | --- |
| CCOC(=O)CCCOc1ccc(NC(=O)NC2C(=O)N(CC34C[C@H]5C[C@@H](C3)C[C@@H](C4)C5)c3ccccc3N(c3ccccc3)C2=O)cc1 (stereo not given in full) | 5.2 nM |
| O=C(Nc1ccc(O)cc1)NC1C(=O)N(CC23C[C@H]4C[C@@H](C2)C[C@@H](C3)C4)c2ccccc2N(c2ccccc2)C1=O (stereo not given in full) | 0.661 nM |
| CC(C)CCN1C(=O)C(NC(=O)Nc2cccc(N(C)C)c2)C(=O)N(c2ccccc2F)c2ccccc21 (stereo not given) | 0.209 nM and 1.9 nM and 0.251 nM |
| O=C(Nc1ccccc1)NC1C(=O)N(CCc2ccccc2)c2ccccc2N(c2ccccc2)C1=O (stereo not given) | 8.3 nM |
| CCCCN1C(=O)C(NC(=O)Nc2ccccc2)C(=O)N(c2ccccc2)c2ccccc21 (stereo not given) | 6.2 nM |
| O=Cc1cccc(NC(=O)NC2C(=O)N(CC34C[C@H]5C[C@@H](C3)C[C@@H](C4)C5)c3ccccc3N(c3ccccc3)C2=O)c1 (stereo not given in full) | 0.955 nM |
| CC(C)(C)CCN1C(=O)C(NC(=O)Nc2cccc(C#N)c2)C(=O)N(c2ccccc2)c2ccccc21 (stereo not given) | 0.646 nM |
| O=C(Nc1ccccc1)NC1C(=O)N(CCC23C[C@H]4C[C@@H](C2)C[C@@H](C3)C4)c2ccccc2N(c2ccccc2)C1=O (stereo not given in full) | 34 nM |
| O=C(Nc1cccc(CO)c1)NC1C(=O)N(CC23C[C@H]4C[C@@H](C2)C[C@@H](C3)C4)c2ccccc2N(c2ccccc2)C1=O (stereo not given in full) | 0.178 nM |
| CSc1cccc(NC(=O)NC2C(=O)N(CCC(C)C)c3ccccc3N(c3ccccc3F)C2=O)c1 (stereo not given) | 0.331 nM |
| CN(C)c1ccc(NC(=O)NC2C(=O)N(CCC3CCCC3)c3ccccc3N(c3ccccc3F)C2=O)cc1 (stereo not given) | 4.7 nM |
| CN(C)c1cccc(NC(=O)NC2C(=O)N(c3ccccc3)c3ccccc3N(C3CC4CCC3C4)C2=O)c1 (stereo not given) | 1 nM |
| CC(C)(C1CCCC1)N1C(=O)C(NC(=O)Nc2cccc(C3N=NN=N3)c2)C(=O)N(c2ccccc2)c2ccccc21 (stereo not given) | 1.5 nM |
| CN(C)c1cccc(NC(=O)NC2C(=O)N(CCC34C[C@H]5C[C@@H](C3)C[C@@H](C4)C5)c3ccccc3N(c3ccccc3)C2=O)c1 (stereo not given in full) | 13 nM |
| O=C(Nc1cccc([N+](=O)[O-])c1)NC1C(=O)N(CC23C[C@H]4C[C@@H](C2)C[C@@H](C3)C4)c2ccccc2N(c2ccccc2)C1=O (stereo not given in full) | 1.9 nM |
| O=C(Nc1ccccc1)NC1C(=O)N(CC2[C@H]3C[C@@H]4C[C@@H](C[C@H]2C4)C3)c2ccccc2N(c2ccccc2)C1=O (stereo not given in full) | 1.9 nM |
| O=C(O)CCCOc1ccc(NC(=O)NC2C(=O)N(CC34C[C@H]5C[C@@H](C3)C[C@@H](C4)C5)c3ccccc3N(c3ccccc3)C2=O)cc1 (stereo not given in full) | 3.8 nM |
| O=C(Nc1cccc(O)c1)NC1C(=O)N(CC23C[C@H]4C[C@@H](C2)C[C@@H](C3)C4)c2ccccc2N(c2ccccc2)C1=O (stereo not given in full) | 0.575 nM |
| CC(C)CC(C)N1C(=O)C(NC(=O)Nc2ccccc2)C(=O)N(c2ccccc2)c2ccccc21 (stereo not given) | 2.1 nM |
| CC(C)Cn1nnc(-c2cccc(NC(=O)NC3C(=O)N(CCC(C)(C)C)c4ccccc4N(c4ccccc4)C3=O)c2)n1 (stereo not given) | 2.5 nM |
| CN(C)c1cccc(NC(=O)NC2C(=O)N(CCC3CCCC3)c3ccccc3N(c3ccccc3F)C2=O)c1 (stereo not given) | 0.676 nM |
| CSc1cccc(NC(=O)NC2C(=O)N(CCC(C)(C)C)c3ccccc3N(c3ccccc3)C2=O)c1 (stereo not given) | 0.49 nM |

Source: BindingDB's records for doi:10.1021/jm990967h (Glaxo Wellcome Medicines Research Centre, 2000)
